Experimental data from patent US7465741B2, “C-substituted tricyclic isoxazoline derivatives and their use as anti-depressants” (Janssen Pharmaceutica N.V., priority 2002, dated 2008).
Structures can show the parent of a compound that is named as a salt.

Tests used:
hα2A receptor = target: T1, hα2A receptor (Homo sapiens, UniProt P08913); assay: Radioligand binding experiment for hα2A receptor ([3H]-raulwolscine, CHO cell membranes); settings: [3H]-raulwolscine 1 nM, membranes of CHO cells transfected with human α2A receptor; read-out: pIC50 hα2A (converted)
T1 construct: expressed in transfected cells; host or cells: CHO cells
T1 sequence (P08913 1-465): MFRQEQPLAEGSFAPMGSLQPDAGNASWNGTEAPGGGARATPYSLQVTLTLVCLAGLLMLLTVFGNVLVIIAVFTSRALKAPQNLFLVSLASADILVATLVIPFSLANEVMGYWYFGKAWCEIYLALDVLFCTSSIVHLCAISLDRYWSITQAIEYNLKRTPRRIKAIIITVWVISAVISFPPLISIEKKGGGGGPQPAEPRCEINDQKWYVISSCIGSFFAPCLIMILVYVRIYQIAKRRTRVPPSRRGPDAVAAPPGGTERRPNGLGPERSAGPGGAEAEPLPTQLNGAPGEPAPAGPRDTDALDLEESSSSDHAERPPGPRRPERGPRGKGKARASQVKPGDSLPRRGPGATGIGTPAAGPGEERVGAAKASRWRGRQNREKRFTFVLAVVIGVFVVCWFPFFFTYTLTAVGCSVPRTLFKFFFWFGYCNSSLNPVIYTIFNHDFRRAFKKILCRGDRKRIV
Method: (§1) The interaction of the compounds according to Formula (I) with hα2-receptors and h5-HT-transporters was assessed in in vitro radioligand binding experiments. In general, a low concentration of a radioligand with a high binding affinity for a particular receptor or transporter is incubated with a sample of a tissue preparation enriched in a particular receptor or transporter or with a preparation of cells expressing cloned human receptors in a buffered medium. During the incubation, the radioligand binds to the receptor or transporter. When equilibrium of binding is reached, the receptor bound radioactivity is separated from the non-bound radioactivity, and the receptor- or transporter-bound activity is counted. The interaction of the test compounds with the receptor is assessed in competition binding experiments. Various concentrations of the test compound are added to the incubation mixture containing the receptor- or transporter preparation and the radioligand. The test compound in proportion to its binding affinity and its concentration inhibits binding of the radioligand. The radioligand used for hα2A, hα2B and hα2C receptor binding was [^3H]-raulwolscine and for the h5-HT transporter was [^3H]paroxetine.
(§2) CHO cells, stabile transfected with human adrenergic-α2A-, —α2B or α2C receptor cDNA, were cultured in Dulbecco's Modified Eagle's Medium (DMEM)/Nutrient mixture Ham's F12 (ratio 1:1)(Gibco, Gent-Belgium) supplemented with 10% heat inactivated fetal calf serum (Life Technologies, Merelbeke-Belgium) and antibiotics (100 IU/ml penicillin G, 100 μg/ml streptomycin sulphate, 110 μg/ml pyruvic acid and 100 μg/ml L-glutamine). One day before collection, cells were induced with 5 mM sodiumbutyrate. Upon 80-90% of confluence, cells were scraped in phosphate buffered saline without Ca^2+ and Mg^2+ and collected by centrifugation at 1500×g for 10 min. The cells were homogenised in Tris-HCl 50 mM using an Ultraturrax homogenizer and centrifuged for 10 min at 23,500×g. The pellet was washed once by resuspension and rehomogenization and the final pellet was resuspended in Tris-HCl, divided in 1 ml aliquots and stored at −70° C.
(§3) Membranes were thawed and re-homogenized in incubation buffer (glycylglycine 25 mM, pH 8.0). In a total volume of 500 μl, 2-10 μg protein was incubated with [^3H]raulwolscine (NET-722) (New England Nuclear, USA) (1 nM final concentration) with or without competitor for 60 min at 25° C. followed by rapid filtration over GF/B filter using a Filtermate196 harvester (Packard, Meriden, Conn.). Filters were rinsed extensively with ice-cold rinsing buffer (Tris-HCl 50 mM pH 7.4). Filter-bound radioactivity was determined by scintillation counting in a Topcount (Packard, Meriden, Conn.) and results were expressed as counts per minute (cpm). Non-specific binding was determined in the presence of 1 μM oxymetazoline for hα2A- and hα2B receptors and 1 μM spiroxatrine for hα2C receptors.
(§4) Data from assays in the presence of compound were calculated as a percentage of total binding measured in the absence of test compound. Inhibition curves, plotting percent of total binding versus the log value of the concentration of the test compound, were automatically generated, and sigmoidal inhibition curves were fitted using non-linear regression. The pIC50 values of test compounds were derived from individual curves.

hα2C receptor = target: T2, hα2C receptor (Homo sapiens, UniProt P18825); assay: Radioligand binding experiment for hα2C receptor ([3H]-raulwolscine, CHO cell membranes); settings: [3H]-raulwolscine 1 nM, membranes of CHO cells transfected with human α2C receptor; read-out: pIC50 hα2C (converted)
T2 construct: expressed in transfected cells; host or cells: CHO cells
T2 sequence (P18825 1-462): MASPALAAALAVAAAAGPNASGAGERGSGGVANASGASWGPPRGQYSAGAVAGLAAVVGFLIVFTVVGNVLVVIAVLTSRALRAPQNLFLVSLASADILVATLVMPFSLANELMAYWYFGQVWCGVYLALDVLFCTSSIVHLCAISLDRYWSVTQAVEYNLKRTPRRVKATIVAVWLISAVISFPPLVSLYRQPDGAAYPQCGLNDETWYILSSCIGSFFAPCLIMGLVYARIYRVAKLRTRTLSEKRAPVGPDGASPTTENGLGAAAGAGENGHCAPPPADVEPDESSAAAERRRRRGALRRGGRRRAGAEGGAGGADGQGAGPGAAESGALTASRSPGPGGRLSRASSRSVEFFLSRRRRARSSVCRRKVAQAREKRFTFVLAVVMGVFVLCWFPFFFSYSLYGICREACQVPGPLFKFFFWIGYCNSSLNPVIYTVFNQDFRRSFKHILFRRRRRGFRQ
Method: as §1, §2, §3, §4

h5-HT transporter = target: T3, h5-HT transporter (Homo sapiens, UniProt P31645); assay: Radioligand binding experiment for 5-HT transporter ([3H]paroxetine, human platelet membranes); settings: [3H]paroxetine 0.5 nM, read-out: pIC50 h5HTT (converted)
T3 construct: Human platelet membranes (Oceanix Biosciences Corporation, Hanover, Md., USA) were thawed; tissue Oceanix Biosciences Corporation; host or cells: human platelet membranes
Method: as §1
Human platelet membranes (Oceanix Biosciences Corporation, Hanover, Md., USA) were thawed, diluted in buffer (Tris-HCl 50 mM, 120 mM NaCl and 5 mM KCl) and quickly (max 3 s) homogenised with an Ultraturrax homogenizer. In a total volume of 250 μL, 50-100 μg protein was incubated with [^3H]paroxetine (NET-869) (New England Nuclear, USA) (0.5 nM final concentration) with or without competitor for 60 min at 25° C. Incubation was stopped by rapid filtration of the incubation mixture over GF/B filters, pre-wetted with 0.1% polyethyleneamine, using a Filtermate 196 harvester (Packard, Meriden, Conn.). Filters were rinsed extensively with ice-cold buffer and radioactivity on the filters was counted in a Topcount liquid scintillation counter (Packard, Meriden, Conn.). Data were expressed as cpm. Imipramine (at 1 μM final concentration) was used to determine the non-specific binding.
as §4

hα2B receptor = target: T4, hα2B receptor (Homo sapiens, UniProt P18089); assay: Radioligand binding experiment for hα2B receptor ([3H]-raulwolscine, CHO cell membranes); settings: [3H]-raulwolscine 1 nM, membranes of CHO cells transfected with human α2B receptor; read-out: pIC50 hα2B (converted)
T4 construct: expressed in transfected cells; host or cells: CHO cells
T4 sequence (P18089 1-450): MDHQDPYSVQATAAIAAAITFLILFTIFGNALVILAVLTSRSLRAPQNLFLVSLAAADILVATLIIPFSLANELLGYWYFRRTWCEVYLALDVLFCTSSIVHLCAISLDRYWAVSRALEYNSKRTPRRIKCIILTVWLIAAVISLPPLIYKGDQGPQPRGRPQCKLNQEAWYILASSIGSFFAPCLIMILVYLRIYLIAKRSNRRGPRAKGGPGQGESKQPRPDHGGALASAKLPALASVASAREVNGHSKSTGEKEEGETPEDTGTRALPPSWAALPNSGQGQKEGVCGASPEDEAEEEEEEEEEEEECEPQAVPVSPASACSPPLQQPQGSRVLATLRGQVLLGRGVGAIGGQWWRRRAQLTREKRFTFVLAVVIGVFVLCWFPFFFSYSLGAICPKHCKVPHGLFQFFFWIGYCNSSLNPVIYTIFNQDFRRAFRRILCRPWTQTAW
Method: as §1, §2, §3, §4

T3 sequence (P31645 whole entry): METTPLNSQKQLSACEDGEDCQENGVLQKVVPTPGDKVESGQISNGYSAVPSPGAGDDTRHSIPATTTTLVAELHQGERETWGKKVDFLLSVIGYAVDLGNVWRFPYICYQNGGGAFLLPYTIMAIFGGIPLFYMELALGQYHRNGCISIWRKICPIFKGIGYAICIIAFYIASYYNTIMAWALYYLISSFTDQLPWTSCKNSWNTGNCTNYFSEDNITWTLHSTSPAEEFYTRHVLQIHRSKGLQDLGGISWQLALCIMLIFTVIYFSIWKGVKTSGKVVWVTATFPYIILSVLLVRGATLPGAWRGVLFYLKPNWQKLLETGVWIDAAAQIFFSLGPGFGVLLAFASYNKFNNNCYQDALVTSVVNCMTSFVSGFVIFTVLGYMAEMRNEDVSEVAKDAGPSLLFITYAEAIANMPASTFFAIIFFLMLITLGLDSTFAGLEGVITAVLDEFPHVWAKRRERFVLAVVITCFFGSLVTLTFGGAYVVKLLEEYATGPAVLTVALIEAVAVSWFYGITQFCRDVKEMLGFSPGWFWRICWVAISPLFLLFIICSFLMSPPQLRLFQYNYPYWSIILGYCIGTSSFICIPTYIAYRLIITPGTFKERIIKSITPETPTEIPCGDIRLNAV

Row | IC50 (hα2A receptor) [nM] | IC50 (hα2C receptor) [nM] | IC50 (h5-HT transporter) [nM] | melting point [°C] | IC50 (hα2B receptor) [nM] | SMILES
1 | 1.58 | 0.501 | 126 | 132.2 to 146.7 | – | C/C(=C\c1ccccc1)CN1CCN(CC2ON=C3c4ccc(C#N)cc4OCC32)CC1 (stereo not drawn) [Compound 13, 3-[4-(2-Methyl-3-phenyl-allyl)-piperazin-1-ylmethyl]-3a,4-dihydro-3H -chromeno[4,3-c]isoxazole-7-carbonitrile]
2 | 15.8 | 3.16 | 10 | 56.1 to 68 | 6.31 | COc1cc2c(cc1CN1CCOCC1)OCC1C2=NOC1CN1CCN(CC(C)=Cc2ccccc2)CC1 (single isomer, unassigned) [Compound 21]
3 | – | – | – | 228.6 to 252.1 | – | CC(=Cc1ccccc1)CN1CCN(CC2ON=C3c4ccc(CN(C)CCO)cc4OCC32)CC1 (stereo not drawn) (as salt: HCl) [Compound 9, 2-(Methyl-{3-[4-(2-methyl-3-phenyl-allyl)-piperazin-1-ylmethyl]-3a,4-dihydro-3H -chromeno[4,3-c]isoxazol-7-ylmethyl}-amino)-ethanol]
4 | 7.94 | 0.794 | 31.6 | – | 2.51 | COCCOCOCc1cc2c(cc1OC)C1=NOC(CN3CCN(C/C(C)=C/c4ccccc4)CC3)C1CO2 (stereo not drawn) [Compound 6, 8-Methoxy-7-(2-methoxy-ethoxymethoxymethyl)-3-[4-(2-methyl-3-phenyl-allyl) -piperazin-1-ylmethyl]-3a,4-dihydro-3H-chromeno[4,3-c]isoxazole]
5 | 3.16 | 0.794 | 158 | – | 2.51 | COCc1ccc2c(c1)OCC1C2=NOC1CN1CCN(CC(C)=Cc2ccccc2)CC1 (stereo not drawn) [Compound 5, 7-Methoxymethyl-3-[4-(2-methyl-3-phenyl-allyl)-piperazin-1-ylmethyl]-3a,4-dihydro-3H-chromeno[4,3-c]isoxazole]
6 | 15.8 | 10 | – | 150.1 to 171.8 | – | COc1cc2c(cc1-c1ccc(C(C)=O)s1)OCC1C2=NOC1CN1CCN(CC(C)=Cc2ccccc2)CC1 (stereo not drawn) [Compound 18, 1-(5-{8-Methoxy-3-[4-(2-methyl-3-phenyl-allyl)-piperazin-1-ylmethyl]-3a,4-dihydro-3H-chromeno[4,3-c]isoxazol-7-yl}-thiophen-2-yl)-ethanone]
7 | 6.31 | 0.794 | 31.6 | – | 2.51 | COc1cc2c(cc1CN1CCC(C)CC1)OCC1C2=NOC1CN1CCN(CC(C)=Cc2ccc(F)cc2)CC1 (stereo not drawn) [Compound 25]
8 | 398 | 50.1 | 20 | 66.5 to 89.8 | 20 | COc1cc2c(cc1CN1CCOCC1)OCC1C2=NOC1CN1CCN(CC(C)=Cc2ccccc2)CC1 (single isomer, unassigned) [Compound 20]
